The source of these data is patent US4997757A, “Process for detecting potential carcinogens” (GeneBioMed, Inc., priority 1988, dated 1991).

One data set has as its system strain RS112. Nature of the data set: survival of yeast exposed to agent. In kind it is cell-based, Saccharomyces cerevisiae. To be noted: 1020 min. An excerpt:
(§1) It is preferred to conduct a preliminary experiment to determine those concentrations of the agent to be tested which should be evaluated in the main experiment. Yeast cells are exposed to a wide range of concentrations of the agent to be tested to determine its cytotoxicity.
(§2) It is preferred that, when the cells are to be grown in the presence of the agent, logarithmic phase cultures are used. In one embodiment, for each of the test strains, a cell suspension of 2×10^6 cells per milliliter-LEU medium be prepared from a logarithmic phase culture pregrown in liquid-LEU medium. The whole mix is aliquoted into portions of 5 milliliter into disposable plastic tubes in the presence of the agent to be tested, the tubes are sealed and shaken continuously for 17 hours.
(§3) The strain used in this example was RS112 which was obtained by crossing strain RSY6 with strain 428. RSY6 contains the SCC system and was deposited at November 30 under "ATCC designation number 20871" with the American Type Culture Collection of 12301 Parklawn Drive, Rockville, Md. 20852. Strain 428 was obtained from M. Snyder, Department of Biology, at Yale University, New Haven, Conn. and was used because it contains the mutation his3Δ-200, the construction of which has been described in an article by Struhl entitled "Naturally occurring poly(dA-dT) sequences are upstream promoter elements of constitutive transcription in yeast, published in Proc. Natl. Acad. Sci. USA 82 on pages 8419-8423. Strains containing the his3Δ-200 mutation are readily available to those skilled in the art.

The test system of another data set is Salmonella typhimurium. To be noted: cited from earlier work.
The subject of another data set is mice. To be noted: cited from earlier work.
For data set [1] the following is noted: in vivo, cited from earlier work.
In data set [2] the test system is strain RS112 (heteroalleles ade2-40 and ade2-101). Nature of the data set: ICC (interchromosomal gene conversion) between heteroalleles ade2-40 and ade2-101. Type of data set: cell-based, Saccharomyces cerevisiae. The following applies: for ICC/10^5 cells: strain RS112. The method, then:
as §2, §3
Strain RS112 has the following genotype: [drawing 2]
Values for the intrachromosomal recombination system between deletion alleles of his3 are designated as SCC. Also strain RS112 contained heteroallelic mutations in ade2 so that the frequency of interchromosomal gene conversion (ICC) between heteroalleles in a diploid was determined. ICC was measured as recombination between the heteroalleles ade2-40 and ade2-101 by selecting for ADE+. Values obtained are given to compare the performance of the two systems.
The frequencies for ICC are given in events per 10^5 survivals, and the frequencies for SCC are given in events per 10^4 survivals. It has to be noted that for sister chromatid recombination in mammalian cells the increase even with potent carcinogens is usually less than ten fold and also slight increases have been taken as positive results. For instance an increase in frequency of two fold has been taken to be significant; see a publication by Rudiger et al. entitled "Metabolites of diethylstilbestrol induce sister chromatid exchange in human cultured fibroblasts." published in Nature 281:392-394).

Data set [3] relates to mammalian cells. To be noted: cited from earlier work.
For data set [4], the system named is strain RS112 (his3 deletion alleles). Nature of the data set: SCC (sister chromatid conversion) intrachromosomal recombination system, deletion alleles of his3. To be noted: for SCC/10^4 cells: strain RS112. In kind it is cell-based, Saccharomyces cerevisiae.
From the text: (§4) In the most preferred embodiment it is preferable to grow the cells in a medium which selects against the occurrence of the genome rearrangement to keep the control values as low as possible. In the embodiment described in FIG. 1 it is shown that the LEU2 gene of construct 10 is lost after the genome rearrangement which results in construct 22. Therefore cells containing construct 10, before the rearrangement are able to grow in the absence of leucine in the medium, but cells containing construct 22, after the genome rearrangement are not able to grow in the absence of leucine. After the genome rearrangement cells containing construct 22 are able to grow in the absence of histidine in the medium, but cells containing construct 10 before the genome rearrangement are not able to grow in the absence of histidine. Therefore the selection scheme which was used for Example 3 involves growth of the yeast culture in medium lacking leucine but containing histidine before and during the exposure to the potential carcinogens or other test agents. After the exposure the cells which have undergone genome rearrangement are selected on medium lacking histidine but containing leucine.
as §2
(§5) After the yeast cells have been exposed to both the agent to be tested and the selection medium under the conditions of the test and have been incubated for some time period of about more than one day preferably at 30 degrees Celsius or any other temperature which allows growth of the yeast cells used, the number of colonies formed by cells which have undergone genome rearrangement are counted and compared with the number of colonies of yeast cells identical in substantially every respect with the exception of not having been exposed to the suspected carcinogenic agent. The rates of genome rearrangement for both the control and experimental samples are then compared.
(§6) Plasmids were constructed as substrates to study intrachromosomal recombination; see an earlier part of the specification and Example 1. The plasmids pRS6 (FIG. 7, construct 108) and pRS11 (FIG. 9, construct 118) both contained an internal fragment of the HIS3 gene as well as one selectable marker (LEU2). pRS11 in addition contained the 2 μm origin of replication to select for the presence of the plasmid after plasmid excision. pRS11FRT-had the FLP recombination site disrupted (see Example 1). Yeast strains RSY6 containing construct 10, RSY11 containing construct 118 and RSY11FRT- (see Example 1) were used. They contained the respective pRS plasmids integrated into the HIS3 gene of strain S35/2-10C giving rise to disruptions of the HIS3 gene construct 10 or analogs to it (FIG. 10). The two resulting his3 deletion alleles (FIG. 10) shared about 400 basepairs of homology and thus could interact with each other by homologous recombination. Reversion of his- to HIS+ occurred at a frequency of about 4×10^-4 in all three strains. All of 100 tested HIS+ revertants of strain RSY6 were leu-. Because of this observation strains used for recombination studies were always pregrown on -LEU medium to prevent growth of HIS+ revertants. Therefore the frequency of HIS+ revertants is a measure of the recombination rate.
(§7) The strain used in this example was RS112 which was obtained by crossing strain RSY6 with strain 428. RSY6 contains the SCC system and was deposited at November 30 under "ATCC designation number 20871" with the American Type Culture Collection of 12301 Parklawn Drive, Rockville, Md. 20852. […]

For data set [5], the system named is mammalian cells. To be noted: cited from earlier work. This is another data set of the same source.
Data set [6] is described as follows: survival of yeast exposed to agent. In kind it is cell-based, Saccharomyces cerevisiae.
From the text: as §1, §2, §3

Data set [7] in a line: SCC (sister chromatid conversion) intrachromosomal recombination system, deletion alleles of his3. Type of data set: cell-based, Saccharomyces cerevisiae. The following applies: yeast strain rs112; versus untreated control; read-out: induction for SCC / increase in SCC.
From the text: as §4, §2, §5, §6, §7

Molecules are shown by their SMILES. Like-named read-outs stand apart in the source and are kept apart here.

With `Cc1c(N)c(=O)n(-c2ccccc2)n1C` [Aminoantipyrine], the results for the survival in the data set on strain RS112 (10 mg/ml), in the data set with strain RS112 (20 mg/ml) and with strain RS112 (40 mg/ml) were 97%, 73.3% and 0.89%, respectively. For the same compound, the “Ames Assay result” value with Salmonella typhimurium is on record as “negative”. The carcinogenicity result in the data set on mice is reported as “bladder carcinogen”; in [1] it was “known carcinogens”. The “ICC/10^5 cells” value in data set [2] (10 mg/ml) is listed as 0.75 /10^5 cells; in data set [2] (20 mg/ml), 1.8 /10^5 cells. Besides, in the data set on mammalian cells [3], the SCE assay result is “negative”. Moreover, the “SCC/10^4 cells” value in data set [4] (10 mg/ml) is 1.02 /10^4 cells; in data set [4] (20 mg/ml), 1.80 /10^4 cells; in [4] (40 mg/ml), 25.8 /10^4 cells. For the same compound, the “chromosomal aberration assay result” value in the data set with mammalian cells [5] was “negative”.
Take `CCOS(C)(=O)=O` [EMS, ethyl methanesulphonate]: the viability at 17 h in data set [6] (yeast strain rs112, 0.02 %) is 98%; in data set [6] (yeast strain rs112, 0.1 %), 91%; in data set [6] (yeast strain rs112, 0.2 %), 37%. In addition, the “ICC result in words” value in data set [2] was “inducible”. Also, the “ICC/10^5 cells” value in data set [2] (0.02 %) is given as 1.3 /10^5 cells; in [2] (0.1 %) it was 15.8 /10^5 cells; in [2] (0.2 %) it was 28.9 /10^5 cells. The “SCC result in words” value in data set [4] is recorded as “inducible”. Moreover, the “SCC/10^4 cells” value in data set [4] (0.02 %) is 4.1 /10^4 cells; in data set [4] (0.1 %) it was 18.1 /10^4 cells; in [4] (0.2 %), 25.3 /10^4 cells. For the same compound, the fold induction in data set [7] was 20 to 150.
With `CCSCC[C@H](N)C(=O)O` [Ethionine], the viability at 17 h was 79% in data set [6] (yeast strain rs112, 10 mg/ml) and 67% in data set [6] (yeast strain rs112, 20 mg/ml). Besides, the “Ames Assay result” value in the data set with Salmonella typhimurium is reported as “negative”. Besides, the carcinogenicity entry in [1] was “liver carcinogen”; in [1] (listed as ethionine), “known carcinogens”. The “ICC/10^5 cells” value was 0.77 /10^5 cells in [2] (10 mg/ml) and 0.80 /10^5 cells in data set [2] (20 mg/ml). The SCE assay result in the data set on mammalian cells [3] is “negative”. In addition, the “SCC/10^4 cells” value is 4.8 /10^4 cells in data set [4] (10 mg/ml) and 5.4 /10^4 cells in [4] (20 mg/ml). The “chromosomal aberration assay result” value with mammalian cells [5] is given as “negative”.
Turning to `COS(C)(=O)=O` [MMS, methyl methane sulphonate], the viability at 17 h in data set [6] (yeast strain rs112, 0.001 %) is 100%; in data set [6] (yeast strain rs112, 0.005 %), 97%; in [6] (yeast strain rs112, 0.01 %), 87%; in data set [6] (yeast strain rs112, 0.02 %), 35%. In addition, in data set [2], the “ICC result in words” value is given as “inducible”. The “ICC/10^5 cells” value in data set [2] (0.001 %) is 1.9 /10^5 cells; in data set [2] (0.005 %), 14.4 /10^5 cells; in data set [2] (0.01 %), 42.3 /10^5 cells; in data set [2] (0.02 %), 62 /10^5 cells. Moreover, the “SCC result in words” value in data set [4] is “inducible”. The “SCC/10^4 cells” value is reported as 3.9 /10^4 cells in data set [4] (0.001 %), 11.4 /10^4 cells in data set [4] (0.005 %), 46.6 /10^4 cells in data set [4] (0.01 %) and 129 /10^4 cells in data set [4] (0.02 %). For the same compound, in data set [7], the fold induction was 20 to 150.
Consider `O=[N+]([O-])c1cc[n+]([O-])c2ccccc12` [NQO, 4-nitroquinoline-N-oxide], for which the viability at 17 h is 84% in data set [6] (yeast strain rs112, 0.1 μg/ml); 74% in data set [6] (yeast strain rs112, 0.5 μg/ml); 13.3% in [6] (yeast strain rs112, 2 μg/ml). Also, in data set [2], the “ICC result in words” value is “inducible”. The “ICC/10^5 cells” value in data set [2] (0.1 μg/ml) is given as 57.4 /10^5 cells; in [2] (0.5 μg/ml) it was 93 /10^5 cells; in data set [2] (2 μg/ml), 106 /10^5 cells. The “SCC result in words” value in [4] is “inducible”. Moreover, the “SCC/10^4 cells” value in data set [4] (0.1 μg/ml) was 16.9 /10^4 cells; in data set [4] (0.5 μg/ml), 19.0 /10^4 cells; in data set [4] (2 μg/ml) it was 55.6 /10^4 cells. Also, in [7], the fold induction was 20 to 150.
With `CCOC(N)=O` [Urethane], the viability at 17 h in data set [6] (yeast strain rs112, 10 mg/ml) is 107%; in data set [6] (yeast strain rs112, 20 mg/ml) it was 51%; in data set [6] (yeast strain rs112, 40 mg/ml), 10%. For the same compound, the “Ames Assay result” value with Salmonella typhimurium is reported as “negative”. Moreover, the carcinogenicity result is recorded as “very effective in producing lung as well as skin tumors in mice” in the data set with mice and “known carcinogens” in [1]. Further, the “ICC/10^5 cells” value in [2] (10 mg/ml) is on record as 0.66 /10^5 cells; in data set [2] (20 mg/ml) it was 0.40 /10^5 cells; in data set [2] (40 mg/ml), 0.78 /10^5 cells. Besides, the SCE assay result in the data set on mammalian cells [3] is “negative”. In addition, the “SCC/10^4 cells” value is given as 1.9 /10^4 cells in data set [4] (10 mg/ml), 4.8 /10^4 cells in data set [4] (20 mg/ml) and 5.3 /10^4 cells in data set [4] (40 mg/ml). In addition, in the data set with mammalian cells [5], the “chromosomal aberration assay result” value is “negative”.
As for `C=CCc1ccc(O)c(OC)c1` [eugenol], the “SCC result in words” value in data set [4] is reported as “test positive”.

As a reminder, the viability is a read-out of living cells in per cent, often relative to untreated cells.
